Experimental data taken from PubChem BioAssay (NCI).
“And” between values parts separate entries of the source, which are not always exact repeats. Equal values may be shown once.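 Cultured in 96-well plates, cells were exposed to test compound for 48 hours across five concentrations. At the GI50, growth is halved. At the TGI there is no net growth.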

Key:
Experiment in all cases: NCI tumour cell line growth inhibition, 48 h
786-0 renal = system: 786-0 renal
A549 NSCLC = system: A549 NSCLC
ACHN renal = system: ACHN renal
BT-549 breast = system: BT-549 breast
CAKI-1 renal = system: CAKI-1 renal
CCRF-CEM leukemia = system: CCRF-CEM leukemia
COLO 205 colon = system: COLO 205 colon
DLD-1 colon = system: DLD-1 colon
DMS 114 small cell lung = system: DMS 114 small cell lung
DMS 273 small cell lung = system: DMS 273 small cell lung
DU-145 prostate = system: DU-145 prostate
EKVX NSCLC = system: EKVX NSCLC
HCC-2998 colon = system: HCC-2998 colon
HCT-116 colon = system: HCT-116 colon
HCT-15 colon = system: HCT-15 colon
HOP-18 NSCLC = system: HOP-18 NSCLC
HOP-62 NSCLC = system: HOP-62 NSCLC
HOP-92 NSCLC = system: HOP-92 NSCLC
HS 578T breast = system: HS 578T breast
HT29 colon = system: HT29 colon
IGROV1 ovarian = system: IGROV1 ovarian
K-562 leukemia = system: K-562 leukemia
KM12 colon = system: KM12 colon
KM20L2 colon = system: KM20L2 colon
LOX IMVI melanoma = system: LOX IMVI melanoma
M14 melanoma = system: M14 melanoma
M19-MEL melanoma = system: M19-MEL melanoma
MALME-3M melanoma = system: MALME-3M melanoma
MCF7 breast = system: MCF7 breast
MDA-MB-231 breast = system: MDA-MB-231 breast
MDA-MB-435 = system: MDA-MB-435
MOLT-4 leukemia = system: MOLT-4 leukemia
NCI-H226 lung = system: NCI-H226 lung
NCI-H23 lung = system: NCI-H23 lung
NCI-H460 lung = system: NCI-H460 lung
NCI-H522 lung = system: NCI-H522 lung
NCI/ADR-RES ovarian = system: NCI/ADR-RES ovarian
OVCAR-3 ovarian = system: OVCAR-3 ovarian
OVCAR-4 ovarian = system: OVCAR-4 ovarian
OVCAR-5 ovarian = system: OVCAR-5 ovarian
OVCAR-8 ovarian = system: OVCAR-8 ovarian
P388 leukemia = system: P388 leukemia
P388/ADR leukemia = system: P388/ADR leukemia
PC-3 prostate = system: PC-3 prostate
RPMI-8226 leukemia = system: RPMI-8226 leukemia
RXF 393 renal = system: RXF 393 renal
SF-268 CNS = system: SF-268 CNS
SF-295 CNS = system: SF-295 CNS
SF-539 CNS = system: SF-539 CNS
SK-MEL-2 melanoma = system: SK-MEL-2 melanoma
SK-MEL-28 melanoma = system: SK-MEL-28 melanoma
SK-MEL-5 melanoma = system: SK-MEL-5 melanoma
SK-OV-3 ovarian = system: SK-OV-3 ovarian
SN12C renal = system: SN12C renal
SNB-19 CNS = system: SNB-19 CNS
SNB-75 CNS = system: SNB-75 CNS
SNB-78 CNS = system: SNB-78 CNS
SR leukemia = system: SR leukemia
SW-620 colon = system: SW-620 colon
T-47D breast = system: T-47D breast
TK-10 renal = system: TK-10 renal
U251 CNS = system: U251 CNS
UACC-257 melanoma = system: UACC-257 melanoma
UACC-62 melanoma = system: UACC-62 melanoma
UO-31 renal = system: UO-31 renal
XF 498 CNS = system: XF 498 CNS

## O=C1C=C2C(=CCOC2O)O1 (stereo not drawn)
786-0 renal
  GI50: 2670 nM
  TGI: 7.06 µM
A549 NSCLC
  GI50: 5.51 µM
  TGI: 21.2 µM and 22.2 µM
ACHN renal
  GI50: 1280 nM
  TGI: 3.34 µM
BT-549 breast
  GI50: 3.28 µM
  TGI: 9.67 µM
CAKI-1 renal
  GI50: 1060 nM and 1000 nM
  TGI: 2300 nM and 2500 nM
CCRF-CEM leukemia
  GI50: 1110 nM
  TGI: 0.709 µM and 6.03 µM
COLO 205 colon
  GI50: 395 nM and 655 nM
  TGI: 1040 nM and 1970 nM
DLD-1 colon
  TGI: 2070 nM
DMS 114 small cell lung
  TGI: 3.29 µM
DMS 273 small cell lung
  TGI: 2410 nM
DU-145 prostate
  GI50: 2070 nM
  TGI: 6.48 µM
EKVX NSCLC
  GI50: 1.76 µM and 10.6 µM
  TGI: 4.64 µM and 40.4 µM
HCC-2998 colon
  GI50: 11.4 µM
HCT-116 colon
  GI50: 1140 nM
  TGI: 544 nM and 2400 nM
HCT-15 colon
  GI50: 1250 nM
  TGI: 1980 nM and 3230 nM
HOP-18 NSCLC
  TGI: 4.77 µM
HOP-62 NSCLC
  TGI: 20.5 µM and 23.4 µM
HOP-92 NSCLC
  GI50: 2640 nM
  TGI: 6.11 µM and 7.84 µM
HS 578T breast
  GI50: 2140 nM
  TGI: 9.84 µM
HT29 colon
  GI50: 6.05 µM and 1.16 µM
  TGI: 22.7 µM and 3.37 µM
IGROV1 ovarian
  GI50: 2590 nM
  TGI: 9.78 µM and 6.24 µM
K-562 leukemia
  GI50: 905 nM and 1790 nM
  TGI: 3.22 µM and 10.7 µM
KM12 colon
  GI50: 783 nM and 3080 nM
  TGI: 1.85 µM and 11.2 µM
KM20L2 colon
  TGI: 12.1 µM
LOX IMVI melanoma
  GI50: 227 nM and 1570 nM
  TGI: 665 nM and 3330 nM
M14 melanoma
  GI50: 1590 nM
  TGI: 3.08 µM
M19-MEL melanoma
  TGI: 8.14 µM
MALME-3M melanoma
  TGI: 2040 nM
MCF7 breast
  TGI: 17.3 µM and 13.7 µM
MDA-MB-231 breast
  GI50: 1960 nM
  TGI: 5.07 µM
MDA-MB-435
  GI50: 1640 nM
  TGI: 3.86 µM
MOLT-4 leukemia
  GI50: 3.66 µM
  TGI: 1.61 µM and 10.7 µM
NCI-H226 lung
  TGI: 6.92 µM
NCI-H23 lung
  GI50: 2730 nM
  TGI: 4.14 µM and 10.6 µM
NCI-H460 lung
  GI50: 3.86 µM
  TGI: 2.41 µM and 18.3 µM
NCI-H522 lung
  GI50: 1120 nM
  TGI: 1070 nM and 2520 nM
NCI/ADR-RES ovarian
  GI50: 2760 nM
  TGI: 4.35 µM and 12.5 µM
OVCAR-3 ovarian
  GI50: 1700 nM and 664 nM
  TGI: 4.06 µM and 2.19 µM
OVCAR-4 ovarian
  TGI: 12.5 µM
OVCAR-5 ovarian
  GI50: 2970 nM
  TGI: 15.8 µM and 7.74 µM
OVCAR-8 ovarian
  GI50: 734 nM and 2570 nM
  TGI: 5.07 µM and 9.22 µM
P388 leukemia
  TGI: 439 nM
P388/ADR leukemia
  TGI: 569 nM
PC-3 prostate
  GI50: 4.69 µM
  TGI: 17.1 µM
RPMI-8226 leukemia
  GI50: 3.6 µM
RXF 393 renal
  GI50: 213 nM and 1100 nM
  TGI: 761 nM and 3000 nM
SF-268 CNS
  GI50: 1100 nM and 3660 nM
  TGI: 8.18 µM and 13.9 µM
SF-295 CNS
  GI50: 3.34 µM and 6.25 µM
  TGI: 8.88 µM and 22.4 µM
SF-539 CNS
  GI50: 941 nM and 1770 nM
  TGI: 2.13 µM and 4.57 µM
SK-MEL-2 melanoma
  TGI: 13.6 µM
SK-MEL-28 melanoma
  GI50: 1280 nM and 2370 nM
  TGI: 3.38 µM and 5.83 µM
SK-MEL-5 melanoma
  GI50: 2430 nM
  TGI: 3.17 µM and 9.05 µM
SK-OV-3 ovarian
  GI50: 11.5 µM and 12.2 µM
  TGI: 20.6 µM and 24.6 µM
SN12C renal
  GI50: 2590 nM
  TGI: 1.86 µM and 10 µM
SNB-19 CNS
  GI50: 3.23 µM and 12.8 µM
  TGI: 9.77 µM and 27.8 µM
SNB-75 CNS
  GI50: 2820 nM
  TGI: 10.1 µM and 13.2 µM
SNB-78 CNS
  TGI: 11.6 µM
SR leukemia
  GI50: 2110 nM
  TGI: 8.51 µM
SW-620 colon
  GI50: 395 nM and 443 nM
  TGI: 1230 nM and 1880 nM
T-47D breast
  GI50: 1400 nM
  TGI: 4.64 µM
TK-10 renal
  GI50: 259 nM
  TGI: 652 nM
U251 CNS
  GI50: 6.92 µM and 2.65 µM
  TGI: 14.6 µM and 10 µM
UACC-257 melanoma
  TGI: 3.85 µM
UACC-62 melanoma
  GI50: 1550 nM
  TGI: 1640 nM and 3200 nM
UO-31 renal
  GI50: 3980 nM and 1240 nM
  TGI: 8.77 µM and 6.43 µM
XF 498 CNS
  TGI: 419 nM
